Reference: US20150306096A1, “8'-HYDROXY-DIHYDROERGOTAMINE COMPOUNDS AND COMPOSITIONS” (MAP Pharmaceuticals, Inc., priority 2012, published 2015)

Experiments:
Experiment in all cases: Radioligand competition binding and kinetics, CHO-K1 membranes
human 5-HT2B receptor = target: T1, human 5-HT2B receptor (Homo sapiens, UniProt P41595); details: 5-HT2B
T1 construct: purchased Euroscreen; host or cells: CHO-K1
Procedure: (§1) For kinetics of radioligand competitive binding, serial dilutions were performed from master solution in 100% DMSO to obtain intermediate concentrations 200-fold higher than the concentrations to be tested. Each test sample was diluted 100-fold in the assay buffer and dispensed into the test plate.
(§2) Ligand: 5-HT (Sigma, H-9523)
(§3) Determination of the Kon constant. Radioligand association kinetics on each receptor were performed by adding in the wells of a 96 well plate 50 μL of radioligand and 50 μL of membrane extracts. The samples were incubated for the times reported in Table 3 below at a temperature optimized for each receptor and filtered over a filter plate. After washing the filters 5 times with 0.5 mL of ice-cold washing buffer, 50 μL of Microscint 20 (Packard) were added to the filters and the plates were incubated 15 min on an orbital shaker and then counted for 1 min/well. This allowed determination of the kobs for each radioligand. Association kinetics were performed at 5 different radioligand concentrations optimized for each receptor (see Table 3 below) to determine 5 different kobs. The different kobs were then plotted against the [radioligand] and the K. was calculated using the following equation: kon=(kobs−koff)[radioligand].
(§4) Determination of the Koff constant. Radioligand dissociation kinetics on each receptor were performed by adding in the wells of a 96 well plate 45 μL of radioligand and 45 μL of membrane extracts. The samples were incubated as reported in Table 4 below at a temperature optimized for each receptor until binding equilibrium was reached as determined by the association kinetics experiment. Then, 100 μL of cold competitor (reference ligand) were added at a 200 fold excess (final concentration) for the times reported in Table 4 at the optimized temperature. The samples were then filtered over a filter plate. After washing the filters 5 times with 0.5 mL of ice-cold washing buffer, 50 μL of Microscint 20 (Packard) were added to the filters and the plates were incubated 15 min on an orbital shaker and then counted for 1 min/well. This allowed determination of the koff for each radioligand.
(§5) Determination of IC50 and Ki constant for each test compound. […] After washing the filters 5 times with 0.5 mL of ice-cold washing buffer, 50 μL of Microscint 20 (Packard) were added to the filters and the plates were incubated 15 min on an orbital shaker and then counted for 1 min/well. […]
(§6) Determination of kon and koff constants for each test compound. Each compound was first assessed in a pilot experiment to evaluate its effect on the kinetic binding of each receptor-radioligand pair. […]

human 5-HT1D receptor = target: T2, human 5-HT1D receptor (Homo sapiens, UniProt P28221); details: 5-HT1D
T2 construct: purchased Euroscreen; host or cells: CHO-K1
Procedure: as §1
5-HT1D Radioligand Binding Assay
Assay buffer: 50 mM Tris (pH 7.4), 4 mM CaCl2, 0.1% ascorbic acid
Washing buffer: 50 mM Tris (pH 7.4)
Membrane: recombinant CHO-K1-5-HT1D membranes thawed on ice and diluted in assay buffer (10 μg/well)
as §2
Radioligand: [^3H]-CT (Perkin Elmer, TRK1038, diluted in assay buffer for a final concentration of 0.5 nM) Filter plate: GF/B Unifilter plate (Perkin Elmer, 6005177) presoaked in 0.5% PEI for 2 hours at RT.
as §3, §4
Determination of IC50 and Ki constant for each test compound. Radioligand competition binding on each receptor were performed by adding in the wells of a 96 well plate […] of test compound at increasing concentration as reported in Table 5 below, 25 μL of radioligand and 25 μL of membrane extracts. The samples were incubated for 60 min (or 4 hours for a second experiment on 5-HT2B receptors) at a temperature optimized for each receptor and then filtered over a filter plate. After washing the filters 5 times with 0.5 mL of ice-cold washing buffer, 50 μL of Microscint 20 (Packard) were added to the filters and the plates were incubated 15 min on an orbital shaker and then counted for 1 min/well. The test compounds were tested in duplicate at the nanomolar concentrations reported below in Table 5.
Determination of kon and koff constants for each test compound. Each compound was first assessed in a pilot experiment to evaluate its effect on the kinetic binding of each receptor-radioligand pair. These pilot experiments were performed at on compound concentration and were composed of 10 time-points measurements in duplicate (2, 5, 10, 20, 30, 45, 60, 90, 120 and 150 minutes).

human 5-HT1A receptor = target: T3, human 5-HT1A receptor (Homo sapiens, UniProt P08908); details: 5-HT1A
T3 construct: purchased Euroscreen; host or cells: CHO-K1
T3 sequence (P08908 1-422): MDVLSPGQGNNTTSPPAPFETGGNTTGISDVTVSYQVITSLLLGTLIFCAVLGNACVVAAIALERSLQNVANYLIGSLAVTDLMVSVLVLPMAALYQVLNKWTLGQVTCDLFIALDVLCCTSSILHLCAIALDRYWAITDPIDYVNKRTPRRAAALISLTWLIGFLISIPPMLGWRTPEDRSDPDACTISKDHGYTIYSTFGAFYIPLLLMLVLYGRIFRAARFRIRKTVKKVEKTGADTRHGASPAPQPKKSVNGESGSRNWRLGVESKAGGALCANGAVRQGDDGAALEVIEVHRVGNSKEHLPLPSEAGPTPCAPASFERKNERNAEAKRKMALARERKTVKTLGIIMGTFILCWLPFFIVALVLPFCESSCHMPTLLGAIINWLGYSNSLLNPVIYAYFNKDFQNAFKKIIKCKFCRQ
Procedure: as §1
as §3, with “Association kinetics were performed at 5 different radioligand concentrations optimized for each receptor (see Table 3 below) to determine 5 different kobs.” left out
Determination of the Koff constant. […] The samples were incubated as reported in Table 4 below at a temperature optimized for each receptor until binding equilibrium was reached as determined by the association kinetics experiment. […] After washing the filters 5 times with 0.5 mL of ice-cold washing buffer, 50 μL of Microscint 20 (Packard) were added to the filters and the plates were incubated 15 min on an orbital shaker and then counted for 1 min/well. […]
as §5, §6

T1 sequence (P41595 whole entry): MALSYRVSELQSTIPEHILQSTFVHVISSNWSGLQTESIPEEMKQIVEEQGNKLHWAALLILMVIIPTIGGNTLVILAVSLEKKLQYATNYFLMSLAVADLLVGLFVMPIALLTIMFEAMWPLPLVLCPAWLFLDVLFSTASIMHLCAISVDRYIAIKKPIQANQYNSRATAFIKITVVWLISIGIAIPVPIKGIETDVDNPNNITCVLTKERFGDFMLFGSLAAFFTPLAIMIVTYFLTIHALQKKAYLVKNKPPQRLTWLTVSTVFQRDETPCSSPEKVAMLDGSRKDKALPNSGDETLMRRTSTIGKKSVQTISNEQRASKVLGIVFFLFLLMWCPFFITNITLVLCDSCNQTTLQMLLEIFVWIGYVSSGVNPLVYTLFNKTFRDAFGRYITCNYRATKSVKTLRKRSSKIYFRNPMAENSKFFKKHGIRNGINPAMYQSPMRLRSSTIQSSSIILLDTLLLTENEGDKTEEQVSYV
T2 sequence (P28221 whole entry): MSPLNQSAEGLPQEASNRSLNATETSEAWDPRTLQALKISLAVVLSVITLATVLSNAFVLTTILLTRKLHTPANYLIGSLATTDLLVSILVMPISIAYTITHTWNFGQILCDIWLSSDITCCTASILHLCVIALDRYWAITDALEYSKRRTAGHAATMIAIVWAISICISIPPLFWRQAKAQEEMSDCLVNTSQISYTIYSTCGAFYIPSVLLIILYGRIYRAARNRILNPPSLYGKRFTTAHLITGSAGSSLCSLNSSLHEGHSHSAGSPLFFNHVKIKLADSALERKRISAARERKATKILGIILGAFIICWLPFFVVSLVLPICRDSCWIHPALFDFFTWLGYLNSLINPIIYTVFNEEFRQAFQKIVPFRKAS

Structure (SMILES): CNS(=O)(=O)Cc1ccc2[nH]cc(CCN(C)C)c2c1 [Sumatriptan, sumatriptan]
- Avg Dissociation half-life (human 5-HT2B receptor): 22.2 min
- IC50 (human 5-HT2B receptor; [3H]-Mesulergine, read-out: IC50 from binding assay): 19.9 µM
- Avg Dissociation half-life (human 5-HT1D receptor): 5.4 min
- Avg Dissociation half-life (human 5-HT1A receptor): 65.4 min
